Assay results as given in publication PMC8868518, “Exploring Titanium(IV) Complexes as Potential Antimicrobial Compounds” (Antibiotics, 2022).
Read-outs that look alike come from different tables or passages of the source. One block for each molecule: values may come before it.

Assays:
[1] = system: K. pneumoniae (ATCC 700603); assay: CO-ADD antibacterial assay, growth inhibition (OD600); format: cell-based, Klebsiella pneumoniae; conditions: up to 32 μg/mL; for MIC K. pneumoniae: predicted or measured MIC, ≥75% growth inhibition
Method: (§1) Dry compounds ranging from 1–2 mg were weighed into properly labeled Eppendorf tubes and sealed with parafilm. The compounds were used as received by the CO-ADD. For the screenings, most compounds were dissolved to a stock concentration of 10 mg/mL in DMSO. K2[Ti(Citrate)3], Na3Citrate, and K2[TiO(Oxalate)2] were dissolved in warm water. […] Samples were diluted in water to a final testing concentration of 32 µg/mL while keeping the final co-solvent concentration to a maximum of 0.5%. Where applicable, compounds were serially diluted 1:2 fold eight times. Each sample concentration was prepared in 384-well plates, non-binding surface plate (NBS; Corning 3640) for each bacterial/fungal strain, tissue-culture treated (TC-treated; Corning 3712/3764), black for mammalian cell types and polypropylene 384-well (PP; Corning 3657) for hemolysis assays, all in duplicate (n = 2), and keeping the final DMSO concentration to a maximum of 0.5%. All sample preparation was conducted using liquid handling robots.
(§2) For the bacterial assays, four Gram-negative bacteria (E. coli (ATCC 25922, Manassas, VA, USA); K. pneumoniae (ATCC 700603), A. baumannii; (ATCC 19606), and P. aeruginosa (ATCC 27853) and the Gram-positive bacteria (S. aureus MRSA (ATCC 43300) were used. Each strain was cultured in cation-adjusted Mueller Hinton broth (CAMHB; Bacto Laboratories 212322, Mount Pritchard, Australia) at 37 °C overnight. A sample of each culture was then diluted 40-fold in fresh CAMHB and incubated at 37 °C for 1.5–3 h. The resultant mid-log phase cultures were diluted with CAMHB (CFU/mL measured by OD600), then added to each well of the compound-containing plates (384-well non-binding surface (NBS) plates; Corning CLS3640, Millipore Sigma, Burlington, MA, USA), giving a cell density of 5 × 10^5 CFU/mL and a total volume of 50 µL. Plates were covered and incubated at 37 °C for 18 h without shaking. Inhibition of bacterial growth was determined by measuring absorbance at 600 nm (OD600) with a Tecan M1000 Pro monochromator plate reader, using media-only as negative control and bacteria without inhibitors as a positive control. […] Colistin sulfate (Sigma C4461) and vancomycin HCl (Sigma 861987) were used as internal controls on each plate for Gram-negative and Gram-positive bacteria, respectively.

[2] = system: S. aureus MRSA (ATCC 43300); assay: as above; format: cell-based, Staphylococcus aureus; conditions: for MIC S. aureus (MRSA): predicted or measured MIC, lowest concentration with ≥75% growth inhibition, 0.25-32 μg/mL, 18 h; for Dmax S. aureus (MRSA), maximum % inhibition: up to 32 μg/mL
Method: as §1, §2

[3] = system: HEK293 ATCC CRL-1573 human embryonic kidney cells; assay: CO-ADD cytotoxicity assay (resazurin); format: cell-based; conditions: all concentrations examined (0.25-32 μg/mL), 20 h; CC50 could not be measured
Method: The compounds were used as received by the CO-ADD. For the screenings, most compounds were dissolved to a stock concentration of 10 mg/mL in DMSO. K2[Ti(Citrate)3], Na3Citrate, and K2[TiO(Oxalate)2] were dissolved in warm water. [Cu(Deferasirox)(H2O)]2 was dissolved in pyridine after its solubility was determined to be excellent in pyridine due to coordination of the solvent to the metal producing [Cu(Deferasirox)(pyridine)]2 in situ. […] Each sample concentration was prepared in 384-well plates, non-binding surface plate (NBS; Corning 3640) for each bacterial/fungal strain, tissue-culture treated (TC-treated; Corning 3712/3764), black for mammalian cell types and polypropylene 384-well (PP; […] All sample preparation was conducted using liquid handling robots. HEK293 ATCC CRL-1573 human embryonic kidney cells were counted manually in a Neubauer hemocytometer and added to compound-containing plates (384-well plates, tissue culture-treated (TC); […] Life Technologies 11995-073) with 10% FBS (GE SH30084.03).

[4] = system: E. coli (ATCC 25922); assay: CO-ADD antibacterial assay, growth inhibition (OD600); format: cell-based, Escherichia coli; conditions: up to 32 μg/mL; for MIC E. coli: predicted or measured MIC, ≥75% growth inhibition
Method: as §1, §2

[5] = system: C. neoformans (ATCC 208821); assay: CO-ADD antifungal assay, growth inhibition (resazurin, OD600-570); format: cell-based, Cryptococcus neoformans; conditions: up to 32 μg/mL; for MIC C. neoformans: predicted or measured MIC, ≥75% growth inhibition, 36 h
Method: (§3) The compounds were used as received by the CO-ADD. For the screenings, most compounds were dissolved to a stock concentration of 10 mg/mL in DMSO. K2[Ti(Citrate)3], Na3Citrate, and K2[TiO(Oxalate)2] were dissolved in warm water. [Cu(Deferasirox)(H2O)]2 was dissolved in pyridine after its solubility was determined to be excellent in pyridine due to coordination of the solvent to the metal producing [Cu(Deferasirox)(pyridine)]2 in situ. […] Each sample concentration was prepared in 384-well plates, non-binding surface plate (NBS; Corning 3640) for each bacterial/fungal strain, tissue-culture treated (TC-treated; Corning 3712/3764), black for mammalian cell types and polypropylene 384-well (PP; […] All sample preparation was conducted using liquid handling robots. For the fungal assays, the fungi (C. albicans (ATCC 90028) and C. neoformans) (ATCC 208821) were used. Both fungi (yeast) strains were cultured for 3 days on Yeast Extract-Peptone Dextrose (YPD; Becton Dickinson 242720, Thermo Fisher Scientific, Waltham, MA, USA) agar at 30 °C. A yeast suspension of 1 × 10^6 to 5 × 10^6 CFU/mL (as determined by OD530) was prepared from five colonies from the agar plates, subsequently diluted with Yeast Nitrogen Base media (YNB; Becton Dickinson 233520, Thermo Fisher Scientific, Waltham, MA, USA), and added to each well of the compound-containing plates (384-well plates, NBS; Corning CLS3640) giving a final cell density of 2.5 × 10^3 CFU/mL and a total volume of 50 μL. Plates were covered and incubated at 35 °C for 36 h without shaking. […] Sigma R7017) and incubation at 35 °C for 2 h, using media-only as a negative control and fungi without inhibitors as a positive control. […] Fluconazole (Sigma F8929) was used as an internal control on each plate for both strains.

[6] = system: C. albicans (ATCC 90028); assay: CO-ADD antifungal assay, growth inhibition (OD630); format: cell-based, Candida albicans; conditions: up to 32 μg/mL; for MIC C. albicans: predicted or measured MIC, ≥75% growth inhibition, 36 h
Method: as §3

[7] = system: MRC-5 cells; conditions: cited from earlier work
[8] = cited from earlier work
[9] = system: P. aeruginosa (ATCC 27853); assay: CO-ADD antibacterial assay, growth inhibition (OD600); format: cell-based, Pseudomonas aeruginosa; conditions: up to 32 μg/mL; for MIC P. aeruginosa: predicted or measured MIC, ≥75% growth inhibition
Method: as §1, §2

[10] = system: A. baumannii (ATCC 19606); assay: as above; format: cell-based, Acinetobacter baumannii; conditions: up to 32 μg/mL; for MIC A. baumannii: predicted or measured MIC, ≥75% growth inhibition
Method: as §1, §2

[11] = system: MRC-5 cells; assay: MRC-5 cell viability, dose-response treatment, MTT assay; format: cell-based, human; conditions: pH 7.4
Method: A thawed stock of MRC-5 cells was washed with 1X PBS and resuspended in phenol red DMEM media (supplemented with 10% FBS and 1% of penicillin-streptomycin) and then seeded in a 100 mm × 20 mm (complete, O.D. x H) petri dish and grown in a 5% (v/v) CO2 humidified atmosphere at 37 °C. At least three passages were performed to ensure the integrity of the cells. After this point, cells were collected, thoroughly washed with 1X PBS, and then resuspended in phenol red-free DMEM (supplemented with 10% FBS, 1% Streptomycin/Penicillin, and 2.4 mM L-glutamine) at a 2.0 × 10^5 cells/mL concentration. Approximately 100 µL of the cell solution was seeded into wells of several 96-well plates to begin the MTT assay, which was performed in the 5% (v/v) CO2 humidified atmosphere at 37 °C. At least one lane of wells in each plate was supplied media without cells as a control. […] Most of the compounds were dissolved in 1X PBS buffer at pH 7.4. […] Titanocene dichloride was prepared as a fresh stock solution in DMSO and then diluted in 0.1 M NaCl (aq) instead of 1X PBS (to minimize hydrolysis induced precipitation) to the desired concentration while maintaining a constant 1% (v/v) DMSO background (0.5% DMSO after mixing with the well media). A control of cells treated with media containing 1% (v/v) DMSO was included in the study. The titanocene solutions were used within an hour of preparation in the final cell solution. […] At 3 h before a total of 72 h of incubation with the compounds, the cells were treated with 25 µL of 9 mg/mL MTT prepared in 1X PBS and sterile-filtered. Upon completion of the three hours, 50 µL of 10% (w/v) SDS (prepared in 0.1 M Tris buffer at pH 11) was added to solubilize the purple formazan product crystals and left overnight in the incubator. Control wells in the plates consisted of: (1) Untreated cells + MTT as the measure of 100% viable cell growth in the media and (2) Media with no cells + MTT as the measure of zero cells in the media. Two sets of compounds could be tested per plate. The plates were read at the wavelength of 570 nm (absorbance of the formazan product at pH 10.0) and 800 nm (background control) using a Tecan plate reader. The absorbance of all wells was compared to the absorbance of the untreated cells with the MTT set as the 100% viable cell standard and the absorbance of the zero cell control set as the 0% viable cell standard. […] Nonlinear regression in Origin 8.5 was utilized to fit the growth curves using the pharmacology dose–response equation to determine the half-maximal inhibitory concentration (IC50) and the corresponding standard deviation. All samples were tested six times.

[12] = Aqueous solution stability, ligand exchange lability and solubility; conditions: water / aqueous buffer
[13] = system: hemolytic and nonhemolytic S. aureus cultures; parameters: method as in doi:10.2298/abs141203061g; conditions: cited from earlier work
[14] = system: total intestinal bacterial count; parameters: method as in PMID 11762532; conditions: white mice, supplied in bread; cited from earlier work

MIC K. pneumoniae [1]: >32 µg/mL
MIC S. aureus (MRSA) [2]: >32 µg/mL
MIC E. coli [4]: >32 µg/mL
MIC C. neoformans [5]: >32 µg/mL
MIC C. albicans [6]: >32 µg/mL
MIC P. aeruginosa [9]: >32 µg/mL
MIC A. baumannii [10]: >32 µg/mL
SMILES: O=C1CN2CCN3CC(=O)[O][Ti]([O]1)([O]c1ccccc1C2)[O]c1ccccc1C3 [Compound 11, Ti(HBED)]
Dmax K. pneumoniae, maximum % inhibition [1]: 56.3%
Dmax S. aureus (MRSA), maximum % inhibition [2]: 61.46%
antiproliferative effect against HEK293 (in words) [3]: inactive
Dmax E. coli, maximum % inhibition [4]: 48.02%
Dmax C. neoformans, maximum % inhibition [5]: −18.86%
Dmax C. albicans, maximum % inhibition [6]: 10.43%
IC50 ± SD [7]: 18.5 ± 1.9 µg/mL
IC50 ([7]; read-out: IC50 ± SD): 42 ± 4.4 µM
solution stability (in words) ([8]; pH 4): highly stable in solution
Dmax P. aeruginosa, maximum % inhibition [9]: 72.48%
Dmax A. baumannii, maximum % inhibition [10]: 68.73%

SMILES: O=C1[O][Ti-2]23([O]C(=O)c4ccccc4[O]2)([O]C(=O)c2ccccc2[O]3)[O]c2ccccc21.[Na+].[Na+] [Compound 12, Na2[Ti(Salicylate)3]]
MIC K. pneumoniae [1]: >32 µg/mL
Dmax K. pneumoniae, maximum % inhibition [1]: 12.46%
MIC S. aureus (MRSA) [2]: >32 µg/mL
Dmax S. aureus (MRSA), maximum % inhibition [2]: 3.66%
MIC E. coli [4]: >32 µg/mL
Dmax E. coli, maximum % inhibition [4]: 2.6%
MIC C. neoformans [5]: >32 µg/mL
Dmax C. neoformans, maximum % inhibition [5]: −5.2%
IC50 ± SD (µg/mL), relative IC50 [11]: 5.14 ± 0.92 µg/mL
IC50 ([11]; read-out: IC50 ± SD (µM), relative IC50): 8.6 ± 1.54 µM
MIC C. albicans [6]: >32 µg/mL
Dmax C. albicans, maximum % inhibition [6]: 49.3%
MIC P. aeruginosa [9]: >32 µg/mL
Dmax P. aeruginosa, maximum % inhibition [9]: 9.57%
solubility (in words) [12]: limited solubility in water
MIC A. baumannii [10]: >32 µg/mL
Dmax A. baumannii, maximum % inhibition [10]: 9.4%

SMILES: O=C([O-])CC1(CC(=O)[O-])[O][Ti-2]23([O]C1=O)([O]C(=O)C(CC(=O)[O-])(CC(=O)[O-])[O]2)[O]C(=O)C(CC(=O)[O-])(CC(=O)[O-])[O]3 [Ti(citrate)3^8−]
ligand exchange lability (in words) [8]: ligand exchange labile
biofilm formation (in words) ([13]; all concentrations tested (0.5 to 50 mM)): significantly activated biofilm formation
concentration with significant inhibition of growth rate ([13]; only the early phase of the bacterial growth cycle): 50 mM

SMILES: O=C(O)C(=O)O.[O]=[Ti] [titanyl oxalate]
decrease in the total intestinal bacterial count [14]: 50%
